Test results published in PMC4965013, “Open Source Drug Discovery with the Malaria Box Compound Collection for Neglected Diseases and Beyond” (PLoS Pathogens, 2016).
Values belong to the compound of their own block, whether it stands above or below them.

Assays:
[1] = tested on: P. falciparum 3D7 trophozoites; experiment: Metabolomic fingerprint profiling LC-MS; format: cell-based, Plasmodium falciparum; parameters: UDP-D-glucose / ADP-D-glucose: unit not given here; settings: for Acetyllysine / N-acetyl-L-ornithine / N-carbamoyl-L-aspartate / NADPH / dAMP / dCMP / dTDP / dTMP / dTTP / dihydroorotate / orotate / DLH / DLS/SDL/SID / PD / PEE / PVNF / 3-phosphoglycerate / ADP-D-glucose / ATP / CDP / D-sedoheptulose-1/7-phosphate / FAD / GMP / NAD+ / NADP+ / Octoluse Bisphosphate / Pyroglutamic acid / UDP-D-glucose / UDP-D-glucuronate / UDP-N-acetyl-glucosamine / UDP / UMP / UTP / a-ketoglutarate / citrate/isocitrate / cytidine / dATP / dGMP/AMP / fumarate / glucose-1/6-phosphate / glycerate / guanine / guanosine / hypoxanthine / indole / inosine / nicotinate / ornithine / phosphoenolpyruvate / pyruvate / ribose-phosphate / sarcosine/alanine / sn-glycerol-3-phosphate / succinate/methylmalonic acid / uridine / xanthosine: S2 Table Metabolomics; for Acetyllysine: metabolite Acetyllysine; for N-acetyl-L-ornithine: metabolite N-acetyl-L-ornithine; for N-carbamoyl-L-aspartate: metabolite N-carbamoyl-L-aspartate; for NADPH: metabolite NADPH; for dAMP: metabolite dAMP; for dCMP: metabolite dCMP; for dTDP: metabolite dTDP; for dTMP: metabolite dTMP; for dTTP: metabolite dTTP; for dihydroorotate: metabolite dihydroorotate; for orotate: metabolite orotate; for DLH: peptide DLH; for DLS/SDL/SID: peptide DLS/SDL/SID; for PD: peptide PD; for PEE: peptide PEE; for PVNF: peptide PVNF; for 3-phosphoglycerate: metabolite 3-phosphoglycerate; for ADP-D-glucose: metabolite ADP-D-glucose; for ATP: metabolite ATP; for CDP: metabolite CDP; for CDP / D-sedoheptulose-1/7-phosphate / GMP / Octoluse Bisphosphate / UDP / UMP / UTP / citrate/isocitrate / dGMP/AMP / fumarate / glucose-1/6-phosphate / glycerate / guanine / guanosine / inosine / pyruvate / sarcosine/alanine / succinate/methylmalonic acid / uridine / xanthosine: change in metabolite level after compound treatment; for D-sedoheptulose-1/7-phosphate: metabolite D-sedoheptulose-1/7-phosphate; for FAD: metabolite FAD; for GMP: metabolite GMP; for NAD+: metabolite NAD+; for NADP+: metabolite NADP+; for Octoluse Bisphosphate: metabolite Octoluse Bisphosphate; for Pyroglutamic acid: metabolite Pyroglutamic acid; for UDP-D-glucose: metabolite UDP-D-glucose; for UDP-D-glucuronate: metabolite UDP-D-glucuronate; for UDP-N-acetyl-glucosamine: metabolite UDP-N-acetyl-glucosamine; for UDP: metabolite UDP; for UMP: metabolite UMP; for UTP: metabolite UTP; for a-ketoglutarate: metabolite a-ketoglutarate; for citrate/isocitrate: metabolite citrate/isocitrate; for cytidine: metabolite cytidine; for dATP: metabolite dATP; for dGMP/AMP: metabolite dGMP/AMP; for fumarate: metabolite fumarate; for glucose-1/6-phosphate: metabolite glucose-1/6-phosphate; for glycerate: metabolite glycerate; for guanine: metabolite guanine; for guanosine: metabolite guanosine; for hypoxanthine: metabolite hypoxanthine; for indole: metabolite indole; for inosine: metabolite inosine; for 2_3-Diphosphoglyceric acid / 4-phosphopantothenate / 6-phospho-D-gluconate / FMN / IMP / Pyrophosphate / Sedoheptoluse bisphosphate / cyclic-AMP / glutathione disulfide / lactate / myo-inositol: metabolite level change after treatment; for nicotinate: metabolite nicotinate; for ornithine: metabolite ornithine; for phosphoenolpyruvate: metabolite phosphoenolpyruvate; for pyruvate: metabolite pyruvate; for ribose-phosphate: metabolite ribose-phosphate; for sarcosine/alanine: metabolite sarcosine/alanine; for sn-glycerol-3-phosphate: metabolite sn-glycerol-3-phosphate; for succinate/methylmalonic acid: metabolite succinate/methylmalonic acid; for uridine: metabolite uridine; for xanthosine: metabolite xanthosine
P. falciparum = experiment: EC50 listed in S2 Table Metabolomics (used to set the concentration tested); format: cell-based; settings: Plasmodium falciparum; EC50 used for Factor_XEC50 in metabolomics; read-out: EC50_nM

- EC50 (P. falciparum): 168 nM
Structure (SMILES): COc1ccc(C=C2SC(=N)N(c3ccccc3OC)C2=O)cc1 [MMV666691]
- Acetyllysine [1]: -0.06113
- N-acetyl-L-ornithine [1]: -0.04858
- N-carbamoyl-L-aspartate [1]: 3.121
- NADPH [1]: 0.04672
- dAMP [1]: -0.1913
- dCMP [1]: 0.1375
- dTDP [1]: -0.4485
- dTMP [1]: -0.268
- dTTP [1]: -0.128
- dihydroorotate [1]: 3.607
- orotate [1]: -0.9141
- DLH [1]: 0.157
- DLS/SDL/SID [1]: 0.06441
- PD [1]: 0.6447
- PEE [1]: 0.2278
- PVNF [1]: 0.06954
- 3-phosphoglycerate [1]: -0.08972
- ADP-D-glucose [1]: 0.2678
- ATP [1]: 0.4861
- CDP [1]: 0.2338
- D-sedoheptulose-1/7-phosphate [1]: 0.4395
- FAD [1]: 0.4218
- GMP [1]: -0.5619
- NAD+ [1]: 0.2782
- NADP+ [1]: 0.1223
- Octoluse Bisphosphate [1]: 0.2088
- Pyroglutamic acid [1]: -0.1274
- UDP-D-glucose [1]: 0.2576
- UDP-D-glucuronate [1]: 0.2671
- UDP-N-acetyl-glucosamine [1]: 0.2054
- UDP [1]: -0.5559
- UMP [1]: -0.8809
- UTP [1]: -0.652
- a-ketoglutarate [1]: -0.2164
- citrate/isocitrate [1]: -0.06979
- cytidine [1]: 0.2052
- dATP [1]: 0.5778
- dGMP/AMP [1]: -0.07557
- fumarate [1]: 0.7045
- glucose-1/6-phosphate [1]: 0.363
- glycerate [1]: 0.3396
- guanine [1]: 0.3707
- guanosine [1]: 0.4982
- hypoxanthine [1]: 0.09969
- indole [1]: 0.002472
- inosine [1]: 0.382
- 2_3-Diphosphoglyceric acid [1]: 0.1853
- 4-phosphopantothenate [1]: -0.1622
- 6-phospho-D-gluconate [1]: 0.4512
- FMN [1]: 0.2558
- IMP [1]: 0.07363
- Pyrophosphate [1]: 0.16
- Sedoheptoluse bisphosphate [1]: 0.2481
- cyclic-AMP [1]: 0.2139
- glutathione disulfide [1]: 0.5647
- lactate [1]: 0.06184
- myo-inositol [1]: 0.08809
- nicotinate [1]: 0.1482
- ornithine [1]: 0.1318
- phosphoenolpyruvate [1]: -0.1506
- pyruvate [1]: -0.3002
- ribose-phosphate [1]: 0.1031
- sarcosine/alanine [1]: 0.4028
- sn-glycerol-3-phosphate [1]: 0.3221
- succinate/methylmalonic acid [1]: 0.3253
- uridine [1]: -0.3469
- xanthosine [1]: 0.6937

- EC50 (P. falciparum): 36.7 nM
Structure (SMILES): COc1ccc(NC(=O)C2c3ccccc3C(=O)N(CC(C)C)C2c2cccs2)cc1 (stereo not shown) [MMV000662]
- Acetyllysine [1]: -4.572
- N-acetyl-L-ornithine [1]: -3.381
- N-carbamoyl-L-aspartate [1]: -2.466
- NADPH [1]: 2.406
- dAMP [1]: 2.2996
- dCMP [1]: 1.058
- dTDP [1]: 1.444
- dTMP [1]: 3.186
- dTTP [1]: 1.443
- dihydroorotate [1]: -3.591
- orotate [1]: -0.05867
- DLH [1]: -6.2862
- DLS/SDL/SID [1]: -4.745
- PD [1]: -2.987
- PEE [1]: -3.507
- PVNF [1]: -6.642
- 3-phosphoglycerate [1]: 0.247
- ADP-D-glucose [1]: -0.1909
- ATP [1]: -1.375
- CDP [1]: -0.7124
- D-sedoheptulose-1/7-phosphate [1]: -1.119
- FAD [1]: -1.511
- GMP [1]: -1.853
- NAD+ [1]: -0.4043
- NADP+ [1]: -0.01609
- Octoluse Bisphosphate [1]: -2.194
- Pyroglutamic acid [1]: 0.3441
- UDP-D-glucose [1]: -0.06213
- UDP-D-glucuronate [1]: -0.01201
- UDP-N-acetyl-glucosamine [1]: 0.08846
- UDP [1]: -1.277
- UMP [1]: -0.622
- UTP [1]: -1.315
- a-ketoglutarate [1]: 0.4405
- citrate/isocitrate [1]: 0.05797
- cytidine [1]: 0.7559
- dATP [1]: 0.06895
- dGMP/AMP [1]: -0.6193
- fumarate [1]: -0.1354
- glucose-1/6-phosphate [1]: -1.428
- glycerate [1]: -0.4765
- guanine [1]: 0.7318
- guanosine [1]: 1.459
- hypoxanthine [1]: 0.3686
- indole [1]: 0.3717
- inosine [1]: 0.5573
- 2_3-Diphosphoglyceric acid [1]: -1.11
- 4-phosphopantothenate [1]: -0.6744
- 6-phospho-D-gluconate [1]: -0.3651
- FMN [1]: 0.04988
- IMP [1]: -0.0547
- Pyrophosphate [1]: -1.578
- Sedoheptoluse bisphosphate [1]: -1.096
- cyclic-AMP [1]: -0.7789
- glutathione disulfide [1]: -0.5026
- lactate [1]: -0.6017
- myo-inositol [1]: -0.9859
- nicotinate [1]: 1.185
- ornithine [1]: 0.01334
- phosphoenolpyruvate [1]: 0.5172
- pyruvate [1]: -1.672
- ribose-phosphate [1]: -0.9727
- sarcosine/alanine [1]: -1.6779
- sn-glycerol-3-phosphate [1]: 0.8186
- succinate/methylmalonic acid [1]: 0.3034
- uridine [1]: 1.71
- xanthosine [1]: -1.3795
